These results are taken from patent US12559529B2, “NPY2 receptor agonists” (Boehringer Ingelheim International GmbH, priority 2019, dated 2026).

The experiment has as its target T1, Human Neuropeptide Y2 Receptor (Homo sapiens, UniProt P49146).
T1 construct: purchased CHEMICON HTS066M
T1 sequence (P49146 1-381): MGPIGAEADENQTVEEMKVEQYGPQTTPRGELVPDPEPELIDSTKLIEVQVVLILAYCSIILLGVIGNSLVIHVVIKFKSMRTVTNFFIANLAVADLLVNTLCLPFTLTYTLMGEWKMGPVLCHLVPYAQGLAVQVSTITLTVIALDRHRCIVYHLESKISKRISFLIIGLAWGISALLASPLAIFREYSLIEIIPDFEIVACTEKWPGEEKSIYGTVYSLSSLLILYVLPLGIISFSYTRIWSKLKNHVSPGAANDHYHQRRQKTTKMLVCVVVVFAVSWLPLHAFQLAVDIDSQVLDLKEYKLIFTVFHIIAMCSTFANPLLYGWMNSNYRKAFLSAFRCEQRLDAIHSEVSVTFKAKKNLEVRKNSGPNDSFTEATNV
Put plainly: Radioligand binding competition assay (RLB). To be noted: Table 3; human 125I-PYY (1-36) 0.02 nM, Y2 receptor membranes; read-out: Ki. As for the experimental part: The filtration RLB assay was carried out in 96-well plates in a final volume of 100 μl per well. Freeze-dried test peptides were dissolved in 100% dimethyl sulfoxide (DMSO) to stock solutions of 1 mM and serial dilutions were performed in assay buffer (50 mM HEPES, 5 mM MgCl2, 1 mM CaCl2), pH 7.4) containing 0.2% ovalbumin. […] Next, 80 μL membranes (HTS066M, ChemiSCREEN™ Human Neuropeptide Y2 Receptor Membrane Preparation, CHEMICON) were added to each well to give a final protein concentration of 0.5 μg/well. The plates were sealed and incubated at room temperature for 2 hours in a plate shaker set at 400 rpm. The incubation was stopped by vacuum filtration onto 0.5% poly-ethylene amine (PEI) presoaked GF/C filters using a 96-well FilterMate™ harvester (Perkin Elmer) followed by four washes with 300 μl/well ice-cold wash buffer (50 mM HEPES, 500 mM NaCl, pH7.4). Filter plates were then dried for 60 min at room temperature and the bottom of the plates was sealed with backing tape UniFilter-96. Finally, 50 μl/well scintillation counter cocktail (Microscint20, Packard) was added and the radioactivity was counted in the Packard TopCount NXT scintillation counter. IC50 values (the half maximal inhibitory concentration of the agonist) were calculated by nonlinear regression analysis of sigmoidal dose-response curves.

In the case of `CC(C)CC(=O)N[C@@H](C)C(=O)N1CCC[C@H]1C(=O)N[C@@H](CCC(=O)O)C(=O)N[C@@H](CCCCNC(=O)COCCOCCNC(=O)COCCOCCNC(=O)CC[C@H](NC(=O)CCCCCCCCCCCCCCCCC(=O)O)C(=O)O)C(=O)N1CCC[C@H]1C(=O)N[C@@H](CCC(=O)O)C(=O)N[C@@H](CCC(=O)O)C(=O)N[C@@H](CC(=O)O)C(=O)N[C@@H](C)C(=O)N[C@@H](C)C(=O)N1CCC[C@H]1C(=O)N[C@@H](CCC(=O)O)C(=O)N[C@@H](CCC(=O)O)C(=O)N[C@@H](CC(C)C)C(=O)N[C@@H](CCC(N)=O)C(=O)N[C@@H](CCCNC(=N)N)C(=O)N[C@@H](Cc1ccc(O)cc1)C(=O)N[C@@H](Cc1ccc(O)cc1)C(=O)N[C@H](C(=O)N[C@@H](CCC(=O)O)C(=O)N[C@@H](CC(C)C)C(=O)N[C@@H](CCCNC(=N)N)C(=O)N[C@@H](Cc1c[nH]cn1)C(=O)N[C@@H](Cc1ccc(O)cc1)C(=O)N[C@@H](Cc1ccc(O)cc1)C(=O)N[C@@H](CC(N)=O)C(=O)N[C@@H](Cc1c[nH]c2ccccc12)C(=O)N[C@@H](CC(C)C)C(=O)N[C@H](C(=O)N[C@@H](CCCNC(=N)N)C(=O)N[C@@H](CCC(N)=O)C(=O)N[C@@H](CCCNC(=N)N)C(=O)N[C@@H](Cc1ccc(O)cc1)C(N)=O)[C@@H](C)O)C(C)C` [Compound 20, N{alpha-4}-(3-methylbutanoyl)-N{epsilon-7}-[2-(2-{2-[2-(2-{2-[(4S)-4-carboxy-4-(17-carboxyheptadecanamido)butanamido]ethoxy}ethoxy)acetamido]ethoxy}ethoxy)acetamido]-[4A,7K,9E,13A,18Q,22V,23E,28Y,30W,31L]hPYY (4-36)], the Ki (in general, a dissociation constant, usually derived from enzyme kinetics or from competition with a known ligand) is 2.57 nM.

With `CC(C)CC(=O)N[C@@H](C)C(=O)N1CCC[C@H]1C(=O)N[C@@H](CCC(=O)O)C(=O)N[C@@H](CCCCNC(=O)COCCOCCNC(=O)COCCOCCNC(=O)CC[C@H](NC(=O)CCCCCCCCCCCCCCCCC(=O)O)C(=O)O)C(=O)N1CCC[C@H]1C(=O)N[C@@H](CCC(=O)O)C(=O)N[C@@H](CCC(=O)O)C(=O)N[C@@H](CC(=O)O)C(=O)N[C@@H](C)C(=O)N[C@@H](CO)C(=O)N1CCC[C@H]1C(=O)N[C@@H](CCC(=O)O)C(=O)N[C@@H](CCC(=O)O)C(=O)N[C@@H](CC(C)C)C(=O)N[C@@H](CCC(N)=O)C(=O)N[C@@H](CCCNC(=N)N)C(=O)N[C@@H](Cc1ccc(O)cc1)C(=O)N[C@@H](Cc1ccc(O)cc1)C(=O)N[C@H](C(=O)N[C@@H](CO)C(=O)N[C@@H](CC(C)C)C(=O)N[C@@H](CCCNC(=N)N)C(=O)N[C@@H](CCCCN)C(=O)N[C@@H](Cc1ccc(O)cc1)C(=O)N[C@@H](Cc1ccc(O)cc1)C(=O)N[C@@H](CC(N)=O)C(=O)N[C@@H](Cc1c[nH]c2ccccc12)C(=O)N[C@@H](CC(C)C)C(=O)N[C@H](C(=O)N[C@@H](CCCNC(=N)N)C(=O)N[C@@H](CCC(N)=O)C(=O)N[C@@H](CCCNC(=N)N)C(=O)N[C@@H](Cc1ccc(O)cc1)C(N)=O)[C@@H](C)O)C(C)C` [Compound 24, N{alpha-4}-(3-methylbutanoyl)-N{epsilon-7}-[2-(2-{2-[2-(2-{2-[(4S)-4-carboxy-4-(17-carboxyheptadecanamido)butanamido]ethoxy}ethoxy)acetamido]ethoxy}ethoxy)acetamido]-[4A,7K,9E,18Q,22V,26K,28Y,30W,31L]hPYY (4-36)], the inhibition constant Ki stood at 2.22 nM.

Consider `CC(C)CC(=O)N[C@@H](C)C(=O)N1CCC[C@H]1C(=O)N[C@@H](CCC(=O)O)C(=O)N[C@@H](CCCCNC(=O)COCCOCCNC(=O)COCCOCCNC(=O)CC[C@H](NC(=O)CCCCCCCCCCCCCCCCC(=O)O)C(=O)O)C(=O)N1CCC[C@H]1C(=O)N[C@@H](CCC(=O)O)C(=O)N[C@@H](CCC(=O)O)C(=O)N[C@@H](CCC(=O)O)C(=O)N[C@@H](C)C(=O)N[C@@H](CO)C(=O)N[C@@H](C)C(=O)N[C@@H](CCC(=O)O)C(=O)N[C@@H](CCC(=O)O)C(=O)N[C@@H](CC(C)C)C(=O)N[C@@H](CCC(N)=O)C(=O)N[C@@H](CCCNC(=N)N)C(=O)N[C@@H](Cc1ccc(O)cc1)C(=O)N[C@@H](Cc1ccc(O)cc1)C(=O)N[C@H](C(=O)N[C@@H](CO)C(=O)N[C@@H](CC(C)C)C(=O)N[C@@H](CCCNC(=N)N)C(=O)N[C@@H](Cc1c[nH]cn1)C(=O)N[C@@H](Cc1ccc(O)cc1)C(=O)N[C@@H](Cc1ccc(O)cc1)C(=O)N[C@@H](CC(N)=O)C(=O)N[C@@H](Cc1c[nH]c2ccccc12)C(=O)N[C@@H](CC(C)C)C(=O)N[C@H](C(=O)N[C@@H](CCCNC(=N)N)C(=O)N[C@@H](CCC(N)=O)C(=O)N[C@@H](CCCNC(=N)N)C(=O)N[C@@H](Cc1ccc(O)cc1)C(N)=O)[C@@H](C)O)C(C)C` [Compound 25, N{alpha-4}-(3-methylbutanoyl)-N{epsilon-7}-[2-(2-{2-[2-(2-{2-[(4S)-4-carboxy-4-(17-carboxyheptadecanamido)butanamido]ethoxy}ethoxy)acetamido]ethoxy}ethoxy)acetamido]-[4A,7K,9E,11E,14A,18Q,22V,28Y,30W,31L]hPYY (4-36)], for which the Ki turned out to be 4.36 nM.

On to `CC(C)CC(=O)N[C@@H](C)C(=O)N1CCC[C@H]1C(=O)N[C@@H](CCC(=O)O)C(=O)N[C@@H](CCCCNC(=O)COCCOCCNC(=O)COCCOCCNC(=O)CC[C@H](NC(=O)CCCCCCCCCCCCCCCCC(=O)O)C(=O)O)C(=O)N1CCC[C@H]1C(=O)N1CCC[C@H]1C(=O)N[C@@H](CCC(=O)O)C(=O)N[C@@H](CC(=O)O)C(=O)N[C@@H](C)C(=O)N[C@H](C(=O)N1CCC[C@H]1C(=O)N[C@@H](CCC(=O)O)C(=O)N[C@@H](CCC(=O)O)C(=O)N[C@@H](CC(C)C)C(=O)N[C@@H](CCC(N)=O)C(=O)N[C@@H](CCCNC(=N)N)C(=O)N[C@@H](Cc1ccc(O)cc1)C(=O)N[C@@H](Cc1ccc(O)cc1)C(=O)N[C@H](C(=O)N[C@@H](CO)C(=O)N[C@@H](CC(C)C)C(=O)N[C@@H](CCCNC(=N)N)C(=O)N[C@@H](Cc1c[nH]cn1)C(=O)N[C@@H](Cc1ccc(O)cc1)C(=O)N[C@@H](Cc1ccc(O)cc1)C(=O)N[C@@H](CC(N)=O)C(=O)N[C@@H](Cc1c[nH]c2ccccc12)C(=O)N[C@@H](CC(C)C)C(=O)N[C@H](C(=O)N[C@@H](CCCNC(=N)N)C(=O)N[C@@H](CCC(N)=O)C(=O)N[C@@H](CCCNC(=N)N)C(=O)N[C@@H](Cc1ccc(O)cc1)C(N)=O)[C@@H](C)O)C(C)C)[C@@H](C)O` [Compound 26, N{alpha-4}-(3-methylbutanoyl)-N{epsilon-7}-[2-(2-{2-[2-(2-{2-[(4S)-4-carboxy-4-(17-carboxyheptadecanamido)butanamido]ethoxy}ethoxy)acetamido]ethoxy}ethoxy)acetamido]-[4A,7K,9P,13T,18Q,22V,28Y,30W,31L]hPYY (4-36)], for which the inhibition constant (Ki) worked out at 0.77 nM.
